Experimental data from US11370798B2 (Vertex Pharmaceuticals Incorporated, priority 2012, dated 2022).
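Also: Test-compound concentration that lowers the Cisplatin IC50 by a set fold.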

What follows are compounds tested on HCT116 colorectal cancer cells (assay: Cisplatin sensitization assay (96 h cell viability MTS)). Conditions: compound and Cisplatin added simultaneously, Cisplatin sensitization value.
Format: cell-based
Method in brief: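 Compound and cisplatin added together as a full matrix of 2-fold serial dilutions from a top final concentration of 10 μM; cells incubated 96 h at 37° C, 5% CO2. Viability then read by MTS after 1 h further incubation; sensitization value reported in μM bins.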
In the case of `Nc1nn2cc(Cl)cnc2c1C(=O)Nc1cnccc1N1CCC(N2CCn3ccnc3C2)CC1` [I-N-102, 2-amino-6-chloro-N-(4-(4-(5,6-dihydroimidazo[1,2-a]pyrazin-7(8H)-yl)piperidin-1-yl)pyridin-3-yl)pyrazolo[1,5-a]pyrimidine-3-carboxamide], the “Cisplatin Sensitization Assay” value is reported as “++ (Cisplatin sensitization value>0.02 μM but <0.2 μM)”. With `Cc1ncnn1-c1ccncc1NC(=O)c1c(N)nn2cc(F)cnc12` [I-N-162, 2-amino-6-fluoro-N-(4-(5-methyl-1H-1,2,4-triazol-1-yl)pyridin-3-yl)pyrazolo[1,5-a]pyrimidine-3-carboxamide] the “Cisplatin Sensitization Assay” value was “++ (Cisplatin sensitization value>0.02 μM but <0.2 μM)”. For `CN1CCN(c2ccncc2NC(=O)c2c(N)nn3cc(Cl)cnc23)CC1(C)C` [I-N-53, 2-amino-6-chloro-N-(4-(3,3,4-trimethylpiperazin-1-yl)pyridin-3-yl)pyrazolo[1,5-a]pyrimidine-3-carboxamide], the “Cisplatin Sensitization Assay” value was “++ (Cisplatin sensitization value>0.02 μM but <0.2 μM)”. For `Nc1nn2cc(F)cnc2c1C(=O)Nc1cncc(F)c1N1CCN(C(=O)C2CC2)CC1` [I-N-276, 2-amino-N-(4-(4-(cyclopropanecarbonyl)piperazin-1-yl)-5-fluoropyridin-3-yl)-6-fluoropyrazolo[1,5-a]pyrimidine-3-carboxamide], the “Cisplatin Sensitization Assay” value was “+++ (Cisplatin sensitization value of <0.02 μM)”. In the case of `Cc1nnccc1-c1ccncc1NC(=O)c1c(N)nn2cc(F)cnc12` [I-C-31, 2-amino-6-fluoro-N-(4-(3-methylpyridazin-4-yl)pyridin-3-yl)pyrazolo[1,5-a]pyrimidine-3-carboxamide], the “Cisplatin Sensitization Assay” value is reported as “+++ (Cisplatin sensitization value of <0.02 μM)”. With `Nc1nn2cc(Cl)cnc2c1C(=O)Nc1cnccc1N1CCC(N2CCC3(COC3)C2)CC1` [I-N-99, N-(4-(4-(2-oxa-6-azaspiro[3.4]octan-6-yl)piperidin-1-yl)pyridin-3-yl)-2-amino-6-chloropyrazolo[1,5-a]pyrimidine-3-carboxamide] the “Cisplatin Sensitization Assay” value was “+++ (Cisplatin sensitization value of <0.02 μM)”. For `Nc1nn2cc(Cl)cnc2c1C(=O)Nc1cnccc1N1CCN(C2CCC2)CC1` [I-N-48, 2-amino-6-chloro-N-(4-(4-cyclobutylpiperazin-1-yl)pyridin-3-yl)pyrazolo[1,5-a]pyrimidine-3-carboxamide], the “Cisplatin Sensitization Assay” value was “++ (Cisplatin sensitization value>0.02 μM but <0.2 μM)”. For `CN1CCC(OC2CCN(c3ccncc3NC(=O)c3c(N)nn4cc(F)cnc34)CC2)CC1` [I-N-154, 2-amino-6-fluoro-N-(4-(4-((1-methylpiperidin-4-yl)oxy)piperidin-1-yl)pyridin-3-yl)pyrazolo[1,5-a]pyrimidine-3-carboxamide], the “Cisplatin Sensitization Assay” value was “+++ (Cisplatin sensitization value of <0.02 μM)”. For `Cn1ncnc1-c1ccncc1NC(=O)c1c(N)nn2cc(F)cnc12` [I-C-65, 2-amino-6-fluoro-N-(4-(1-methyl-1H-1,2,4-triazol-5-yl)pyridin-3-yl)pyrazolo[1,5-a]pyrimidine-3-carboxamide], the “Cisplatin Sensitization Assay” value was “++ (Cisplatin sensitization value>0.02 μM but <0.2 μM)”. In the case of `N#CCc1cnc2c(C(=O)Nc3cnccc3OC3CCCC3)c(N)nn2c1` [I-O-43, 2-amino-6-(cyanomethyl)-N-(4-(cyclopentyloxy)pyridin-3-yl)pyrazolo[1,5-a]pyrimidine-3-carboxamide], the “Cisplatin Sensitization Assay” value is reported as “+++ (Cisplatin sensitization value of <0.02 μM)”. For `Nc1nn2cc(F)cnc2c1C(=O)Nc1cnccc1N1CCN2CCC1CC2` [I-N-18, N-(4-(1,4-diazabicyclo[3.2.2]nonan-4-yl)pyridin-3-yl)-2-amino-6-fluoropyrazolo[1,5-a]pyrimidine-3-carboxamide], the “Cisplatin Sensitization Assay” value was “++ (Cisplatin sensitization value>0.02 μM but <0.2 μM)”. With `Nc1nn2cc(Cl)cnc2c1C(=O)Nc1cncc(F)c1N1CCN(C2COC2)CC1` [I-N-117, 2-amino-6-chloro-N-(5-fluoro-4-(4-(oxetan-3-yl)piperazin-1-yl)pyridin-3-yl)pyrazolo[1,5-a]pyrimidine-3-carboxamide] the “Cisplatin Sensitization Assay” value was “+++ (Cisplatin sensitization value of <0.02 μM)”. With `Nc1nn2cc(F)cnc2c1C(=O)Nc1cnccc1N1CCN(S(=O)(=O)C2CCOCC2)CC1` [I-N-177, 2-amino-6-fluoro-N-(4-(4-((tetrahydro-2H-pyran-4-yl)sulfonyl)piperazin-1-yl)pyridin-3-yl)pyrazolo[1,5-a]pyrimidine-3-carboxamide] the “Cisplatin Sensitization Assay” value was “+++ (Cisplatin sensitization value of <0.02 μM)”. For `Nc1nn2cc(Cl)cnc2c1C(=O)Nc1cnccc1O[C@H]1CCOC1` [I-O-58, (S)-2-amino-6-chloro-N-(4-((tetrahydrofuran-3-yl)oxy)pyridin-3-yl)pyrazolo[1,5-a]pyrimidine-3-carboxamide], the “Cisplatin Sensitization Assay” value was “+++ (Cisplatin sensitization value of <0.02 μM)”. In the case of `CC1(C)CCCN1c1ccncc1NC(=O)c1c(N)nn2cc(F)cnc12` [I-N-220, 2-amino-N-(4-(2,2-dimethylpyrrolidin-1-yl)pyridin-3-yl)-6-fluoropyrazolo[1,5-a]pyrimidine-3-carboxamide], the “Cisplatin Sensitization Assay” value is reported as “++ (Cisplatin sensitization value>0.02 μM but <0.2 μM)”. In the case of `CN1CCN(C2CCN(c3ccncc3NC(=O)c3c(N)nn4cc(Cl)cnc34)CC2)CC1` [I-N-97, 2-amino-6-chloro-N-(4-(4-(4-methylpiperazin-1-yl)piperidin-1-yl)pyridin-3-yl)pyrazolo[1,5-a]pyrimidine-3-carboxamide], the “Cisplatin Sensitization Assay” value is reported as “+++ (Cisplatin sensitization value of <0.02 μM)”. For `CN(C)CCNC(=O)C1CCN(c2c(F)cncc2NC(=O)c2c(N)nn3cc(F)cnc23)CC1` [I-G-30, 2-amino-N-(4-(4-((2-(dimethylamino)ethyl)carbamoyl)piperidin-1-yl)-5-fluoropyridin-3-yl)-6-fluoropyrazolo[1,5-a]pyrimidine-3-carboxamide], the “Cisplatin Sensitization Assay” value was “+++ (Cisplatin sensitization value of <0.02 μM)”. `Nc1nn2cc(F)cnc2c1C(=O)Nc1cncc(F)c1N1CCN(C2COC2)CC1` [I-N-13, 2-amino-6-fluoro-N-(5-fluoro-4-(4-(oxetan-3-yl)piperazin-1-yl)pyridin-3-yl)pyrazolo[1,5-a]pyrimidine-3-carboxamide] was tested, and the “Cisplatin Sensitization Assay” value was “+++ (Cisplatin sensitization value of <0.02 μM)”. With `CN(C)CCN(C)C(=O)C1CCN(c2c(F)cncc2NC(=O)c2c(N)nn3cc(F)cnc23)CC1` [I-G-31, 2-amino-N-(4-(4-((2-(dimethylamino)ethyl)(methyl)carbamoyl)piperidin-1-yl)-5-fluoropyridin-3-yl)-6-fluoropyrazolo[1,5-a]pyrimidine-3-carboxamide] the “Cisplatin Sensitization Assay” value was “+++ (Cisplatin sensitization value of <0.02 μM)”. In the case of `Nc1nn2cc(F)cnc2c1C(=O)Nc1cnccc1N1CCN2C(=O)OCC2C1` (stereo not drawn) [I-N-238, 2-amino-6-fluoro-N-(4-(3-oxotetrahydro-1H-oxazolo[3,4-a]pyrazin-7(3H)-yl)pyridin-3-yl)pyrazolo[1,5-a]pyrimidine-3-carboxamide], the “Cisplatin Sensitization Assay” value is reported as “++ (Cisplatin sensitization value>0.02 μM but <0.2 μM)”. For `Nc1nn2cc(F)cnc2c1C(=O)Nc1cncc(Cl)c1N1CCC(C(=O)N2CCN3CCC2CC3)CC1` [I-G-66, N-(4-(4-(1,4-diazabicyclo[3.2.2]nonane-4-carbonyl)piperidin-1-yl)-5-chloropyridin-3-yl)-2-amino-6-fluoropyrazolo[1,5-a]pyrimidine-3-carboxamide], the “Cisplatin Sensitization Assay” value was “+++ (Cisplatin sensitization value of <0.02 μM)”.
